pIC50: −log10 of the molar value.
Molecular target: T1, Recombinant human renin (Homo sapiens, UniProt P00797)
T1 construct: isolate the active form (residues 67-406); made in house; host or cells: FreeStyle 293-F cells, transient expression of pcDNA3.1(+)/hREN
T1 sequence (P00797 67-406): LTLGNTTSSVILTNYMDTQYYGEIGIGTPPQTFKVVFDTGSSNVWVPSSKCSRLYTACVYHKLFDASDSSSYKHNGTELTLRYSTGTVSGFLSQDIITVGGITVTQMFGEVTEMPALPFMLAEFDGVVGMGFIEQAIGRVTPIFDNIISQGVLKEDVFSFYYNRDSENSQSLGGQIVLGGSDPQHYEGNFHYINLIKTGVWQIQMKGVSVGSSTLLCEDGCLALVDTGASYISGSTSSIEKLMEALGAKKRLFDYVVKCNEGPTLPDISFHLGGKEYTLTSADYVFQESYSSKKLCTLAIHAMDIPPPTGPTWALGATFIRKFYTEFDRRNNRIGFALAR
Assay: In vitro enzymatic activity assay of renin inhibitors (fluorescence, QXL520/HiLyteFluo488 peptide substrate)
Assay type: biochemical
Conditions: recombinant human renin 3 nM, 1 μM substrate, pre-incubated 10 minutes at 37° C., incubation one hour, pH 7.4, 5% DMSO; read-out: IC50 of Exemplified Compounds Against Renin

Structure (SMILES) | pIC50
O=C(c1c(-c2ccccc2)n([C@H]2CCCC[C@H]2O)c(=O)n1CC1CCCCC1)N1CCNCC1 [Example 157, 1-(Cyclohexylmethyl)-3-((1S,2R)-2-hydroxycyclohexyl)-4-phenyl-5-(piperazine-1-carbonyl)-1H-imidazol-2(3H)-one] | < 6.00
Cc1ccccc1-n1c(-c2ccccc2)c(C(=O)N2CCNCC2)n(CCNS(=O)(=O)c2cccc(Cl)c2)c1=O [Example 205, 3-Chloro-N-(2-(2-oxo-4-phenyl-5-(piperazine-1-carbonyl)-3-o-tolyl-2,3-dihydro-1H-imidazol-1-yl)ethyl)benzenesulfonamide] | < 6.00
COCCCOc1ccccc1-n1c(-c2ccccc2)c(C(=O)N2CCNCC2)[nH]c1=O [Example 33, 1-(2-(3-Methoxypropoxy)phenyl)-5-phenyl-4-(piperazine-1-carbonyl)-1H-imidazol-2(3H)-one] | < 6.00
COc1ccccc1C(=O)NCCCn1c(C(=O)N2CCNCC2)c(-c2ccccc2)n(-c2ccccc2C)c1=O [Example 244, 2-Methoxy-N-(3-(2-oxo-4-phenyl-5-(piperazine-1-carbonyl)-3-o-tolyl-2,3-dihydro-1H-imidazol-1-yl)propyl)benzamide] | < 6.00
Cc1ccccc1-n1c(-c2ccccc2)c(C(=O)N2CCNCC2)n(CCNC(=O)c2ccccc2F)c1=O [Example 230, 2-Fluoro-N-(2-(2-oxo-4-phenyl-5-(piperazine-1-carbonyl)-3-o-tolyl-2,3-dihydro-1H-imidazol-1-yl)ethyl)benzamide] | < 6.00
COc1ccccc1-n1c(-c2ccccc2)c(C(=O)N2CCNCC2)n(Cc2ccc(F)c(F)c2)c1=O [Example 148, 1-(3,4-Difluorobenzyl)-3-(2-methoxyphenyl)-4-phenyl-5-(piperazine-1-carbonyl)-1H-imidazol-2(3H)-one] | < 6.00
O=C(c1c(-c2ccccc2)n(C2CCCN(S(=O)(=O)c3ccccn3)C2)c(=O)n1Cc1ccccc1)N1CCNCC1 (centres unmarked) [Example 101, 1-Benzyl-4-phenyl-5-(piperazine-1-carbonyl)-3-(1-(pyridin-2-ylsulfonyl)piperidin-3-yl)-1H-imidazol-2(3H)-one] | < 6.00
O=C(NC[C@@H]1CNCCN1C(=O)c1[nH]c(=O)n([C@@H]2CCCC[C@H]2O)c1-c1ccccc1)c1ccccc1 [Example 107, N—(((S)-1-(1-((1R,2R)-2-Hydroxycyclohexyl)-2-oxo-5-phenyl-2,3-dihydro-1H-imidazole-4-carbonyl)piperazin-2-yl)methyl)benzamide] | 6.00 to 6.30
CC(=O)N1CCCC(n2c(-c3ccccc3)c(C(=O)N3CCNCC3)n(Cc3ccccc3)c2=O)C1 (centres unmarked) [Example 93, 1-(1-Acetylpiperidin-3-yl)-3-benzyl-5-phenyl-4-(piperazine-1-carbonyl)-1H-imidazol-2(3H)-one] | < 6.00
Cc1ccccc1-n1c(-c2ccccc2)c(C(=O)N2CCNCC2)n(CCCNC(=O)NC(C)C)c1=O [Example 227, 1-Isopropyl-3-(3-(2-oxo-4-phenyl-5-(piperazine-1-carbonyl)-3-o-tolyl-2,3-dihydro-1H-imidazol-1-yl)propyl)urea] | < 6.00

More lines, now with the values ahead:

pIC50 | Structure (SMILES)
6.30 to 7.00 | Cn1c(C(=O)N2CCNC[C@H]2Cc2ccccc2)c(-c2ccccc2)n(-c2cccc(N3CCOCC3)c2)c1=O [Example 55, (R)-4-(2-Benzylpiperazine-1-carbonyl)-3-methyl-1-(3-morpholinophenyl)-5-phenyl-1H-imidazol-2(3H)-one]
6.00 to 6.30 | COc1ccccc1C(=O)NCCn1c(C(=O)N2CCNCC2)c(-c2ccccc2)n(-c2ccccc2C)c1=O [Example 234, 2-Methoxy-N-(2-(2-oxo-4-phenyl-5-(piperazine-1-carbonyl)-3-o-tolyl-2,3-dihydro-1H-imidazol-1-yl)ethyl)benzamide]
6.30 to 7.00 | Cc1ccccc1-n1c(-c2ccccc2)c(C(=O)N2CCNCC2)n(CCCNS(=O)(=O)c2cccc(Cl)c2)c1=O [Example 218, 3-Chloro-N-(3-(2-oxo-4-phenyl-5-(piperazine-1-carbonyl)-3-o-tolyl-2,3-dihydro-1H-imidazol-1-yl)propyl)benzenesulfonamide]
6.30 to 7.00 | O=C(c1c(-c2ccccc2)n(-c2ccccc2)c(=O)n1Cc1ccc2ccccc2c1)N1CCNCC1 [Example 84, 1-(Naphthalen-2-ylmethyl)-3,4-diphenyl-5-(piperazine-1-carbonyl)-1H-imidazol-2(3H)-one]
6.30 to 7.00 | COc1cccc(NC(=O)NCCn2c(C(=O)N3CCNCC3)c(-c3ccccc3)n(-c3ccccc3C)c2=O)c1 [Example 215, 1-(3-Methoxyphenyl)-3-(2-(2-oxo-4-phenyl-5-(piperazine-1-carbonyl)-3-o-tolyl-2,3-dihydro-1H-imidazol-1-yl)ethyl)urea]
6.30 to 7.00 | O=C(Nc1ccccc1-n1c(-c2ccccc2)c(C(=O)N2CCNC[C@H]2Cc2ccccc2)[nH]c1=O)C1CC1 [Example 120, (R)—N-(2-(4-(2-Benzylpiperazine-1-carbonyl)-2-oxo-5-phenyl-2,3-dihydro-1H-imidazol-1-yl)phenyl)cyclopropanecarboxamide]
> 7.00 | CCCS(=O)(=O)Nc1ccccc1-n1c(-c2ccccc2)c(C(=O)N2CCNC[C@H]2Cc2ccccc2)[nH]c1=O [Example 119, (R)—N-(2-(4-(2-Benzylpiperazine-1-carbonyl)-2-oxo-5-phenyl-2,3-dihydro-1H-imidazol-1-yl)phenyl)propane-1-sulfonamide]
6.30 to 7.00 | O=C(c1c(-c2ccccc2)n(-c2cccc(N3CCOCC3)c2)c(=O)n1Cc1cccc(OCCOc2ccccc2)c1)N1CCNCC1 [Example 191, 1-(3-Morpholinophenyl)-3-(3-(2-phenoxyethoxy)benzyl)-5-phenyl-4-(piperazine-1-carbonyl)-1H-imidazol-2(3H)-one]
> 7.00 | O=C(c1c(-c2ccccc2)n(-c2cccc(N3CCOCC3)c2)c(=O)n1Cc1cccc(Oc2ccccc2)c1)N1CCNCC1 [Example 74, 1-(3-Morpholinophenyl)-3-(3-phenoxybenzyl)-5-phenyl-4-(piperazine-1-carbonyl)-1H-imidazol-2(3H)-one]
6.30 to 7.00 | O=C(c1c(-c2ccccc2)n(C2CCCN(S(=O)(=O)c3ccccc3)C2)c(=O)n1Cc1cccc(Oc2ccccc2)c1)N1CCNCC1 (centres unmarked) [Example 102, 1-(3-Phenoxybenzyl)-4-phenyl-3-(1-(phenylsulfonyl)piperidin-3-yl)-5-(piperazine-1-carbonyl)-1H-imidazol-2(3H)-one]
> 7.00 | O=C(c1[nH]c(=O)n([C@H]2CCCC[C@@H]2O)c1-c1ccccc1)N1CCNC[C@H]1Cc1ccccc1 [Example 126, 4-((R)-2-Benzylpiperazine-1-carbonyl)-1-((1S,2S)-2-hydroxycyclohexyl)-5-phenyl-1H-imidazol-2(3H)-one]
6.30 to 7.00 | COc1cccc(NC(=O)NCCCn2c(C(=O)N3CCNCC3)c(-c3ccccc3)n(-c3ccccc3C)c2=O)c1 [Example 226, 1-(3-Methoxyphenyl)-3-(3-(2-oxo-4-phenyl-5-(piperazine-1-carbonyl)-3-o-tolyl-2,3-dihydro-1H-imidazol-1-yl)propyl)urea]
6.30 to 7.00 | COCCCOc1cccc(-n2c(-c3ccccc3)c(C(=O)N3CCNCC3)n(CCNC(=O)c3ccccc3)c2=O)c1 [Example 182, N-(2-(3-(3-(3-Methoxypropoxy)phenyl)-2-oxo-4-phenyl-5-(piperazine-1-carbonyl)-2,3-dihydro-1H-imidazol-1-yl)ethyl)benzamide]

— patent publication US8148367B2 (Takeda Pharmaceutical Company Limited, priority 2008, dated 2012)
